Assay results as given in patent US20150211028A1, “Production of 1,3-Propanediol in Cyanobacteria” (Algenol Biofuels Inc., priority 2013, published 2015).

Legend:
[1] = test system: Synechococcus sp. PCC 7002; assay: Tolerance testing: growth (OD750) after a one time bolus of 1,3-propanediol; format: cell-based; conditions: OD750 monitored for one week
Description: (§1) The tolerance of cyanobacterial strains Synechocystis sp. PCC 6803 and Synechococcus sp. PCC 7002 to the presence of accumulated 1,3-propanediol in the culture medium was examined by adding a one time bolus of varying amounts of 1,3-propanediol (ranging from 0.05% to 5%) to exponential phase cultures and comparing the growth of these cultures to a wild type culture with no addition. Growth was monitored by optical density (OD750) for one week. There was no effect on the growth of Synechocystis sp. PCC 6803 in the presence of up to 1% 1,3-propanediol compared to the control (no addition of 1,3-propanediol). […] At 5% 1,3-propanediol, Synechocystis sp. […] There was no effect on the growth of Synechococcus sp. PCC 7002 with up to 1% 1,3-propanediol addition.

[2] = test system: Synechocystis sp. PCC 6803; assay: as above; format: cell-based; conditions: OD750 monitored for one week
Description: as §1

Structure (SMILES): OCCCO [1,3-propanediol]
- survival of the culture ([1]; 2% 1,3-propanediol addition): lethal resulting in a completely bleached culture
- effect on growth compared to the control ([1]; up to 1% 1,3-propanediol addition, exponential phase culture): no effect
- effect on growth compared to the control ([2]; 2% and 3% 1,3-propanediol in culture medium): inhibition effect resulting in a yellowing discoloration of the culture, slower growth and clumping
- survival of the culture ([2]; 5% 1,3-propanediol in culture medium): could not survive and bleached out after 3 days
- effect on growth compared to the control ([2]; up to 1% 1,3-propanediol in culture medium, exponential phase culture): no effect
